Measurements: publication PMC8145107 (Pharmaceutics, 2021)
“And” between values parts separate entries of the source, which are not always exact repeats. Equal values may be shown once.

Experiments:
[1] = tested on: NIH 3T3: mouse embryonic fibroblast cell line; assay: Cytotoxicity in normal mammalian cells (NIH 3T3); format: cell-based; conditions: NIH3T3, 24 h, 0.01-100 μM, read-out: IC50 of compounds in various normal mammalian cells
[2] = tested on: VERO: African green monkey kidney cell line; assay: Cytotoxicity in normal mammalian cells (VERO); format: cell-based; conditions: Chlorocebus sabaeus, 24 h, 0.01-100 μM, read-out: IC50 of compounds in various normal mammalian cells
hERG K+ channel = hERG K+ channel binding assay (fluorescence polarization, red fluorescent tracer); conditions: human, probe red fluorescent hERG channel ligand tracer; concentration treated 10 μM
Method: To perform the Ames test of J2 and NA49, the number of revertant colonies was counted on each compound-treated plate at the maximum concentration at which the compound was soluble and nontoxic to the S. typhimurium tester strains (Supplementary Material S1). The ratio of the number of revertant colonies in the treated plate to colonies in the vehicle plate. […] For the hERG K^+ channel binding assay of J2 and NA49, the inhibitory activity against the hERG K^+ channel and its ligand was measured using a red fluorescent hERG channel ligand tracer. The final activity was assessed as a decrease in the degree of fluorescence polarization. […]
For hERG K+ channel binding […]
assay, measuring the inhibitory activity against the hERG K+ channel and its ligand using red fluorescent hERG channel ligand tracer. Final activity was assessed by the decrease in fluorescence polarization degree.

[3] = Kinetic solubility by nephelometry; format: physicochemical; conditions: aqueous buffer, kinetic from dmso stock; pH 7, nephelometry
Method: Permeability was evaluated with a parallel artificial membrane permeability (PAMPA) assay using an artificially generated lipid-infused membrane.

[4] = Log P by pH-metric method; format: physicochemical
[5] = Liver microsomal phase I stability assay (rat); format: in vitro ADME; conditions: rat liver microsomes
[6] = Liver microsomal phase I stability assay (human); format: in vitro ADME; conditions: human liver microsomes
[7] = Pharmacokinetic study after IV injection in rats; format: in vivo; conditions: male, Sprague-Dawley, plasma, rat
From the text: Male Sprague–Dawley rats (7-week-old) and male Institute of Cancer Research (ICR) mice (5-week-old) were purchased from Orient Bio (Seongnam, Korea) and Samtako Bio (Osan, Korea), respectively. The experimental animals were housed under conventional conditions and fasted overnight before surgery for catheterization. All procedures for animal experiments were in accordance with the guidelines by the Ewha Woman’s University Institutional Animal Care and Use Committee (IACUC, 15-049 and 16-062), Korea.
The HPLC system used for this study was an Agilent HP1100 equipped with a quaternary pump with degasser, a variable wavelength detector, a thermostatted auto-sampler, and an HPLC 2D Agilent ChemStation software. A capcell-pak C18 MG120 column (3.0 × 250 mm, 5 µm, Shiseido, Tokyo, Japan) was used at 25 °C. The mobile phase was composed of water (0.1% trifluoroacetic acid) and acetonitrile (0.1% trifluoroacetic acid) (57:43 (v/v) for J2 and 50:50 (v/v) for NA49, respectively), filtered through a 0.45 μm Millipore filter and degassed prior to use, and the flow rate was 0.5 mL/min. UV detection was performed at 248 nm for J2 and at 246 nm for NA49, and the injection volume was 40 µL for both compounds. […] The accuracy (%) was calculated by dividing the mean of the measured drug concentration by the theoretical drug concentration. […] After extraction, the supernatant was transferred to a clean insert for HPLC analysis.
J2 and NA49 were dissolved in 10% DMAc and 10% Tween® 80 solution in saline to a concentration of 2.5 mg/mL for pharmacokinetic studies. The common carotid artery of the rat was catheterized under anesthesia using isoflurane the day before administration of J2 and NA49 [27]. Rats were divided into four groups. J2 and NA49 were administered to rats by intravenous (IV) injection at doses of 2 mg/kg and 10 mg/kg, respectively. Blood samples (0.2~0.25 mL) were collected at 0, 0.033, 0.083, 0.167, 0.33, 0.67, 1, 2, 3, 5, 7, 9, and 24 h following IV administration. The plasma samples obtained after centrifugation of the blood samples were stored at −20°C until HPLC analysis. The following pharmacokinetic parameters of J2 and NA49 were estimated by non-compartmental analysis using WinNonlin® Professional version 5.2 software (Pharsight Corporation, Mountain View, CA, USA): Initial drug concentration (C0), area under the plasma concentration–time curve from 0 h to the final sampling time point (AUC0-last), elimination half-life (t1/2), apparent volume of distribution (Vd), and total clearance (Cl).

[8] = Stability tests of the analytes (HPLC method validation, rat plasma); format: physicochemical; conditions: for Stability of standard stock solution: 1 mg/mL
Method: pounds. The analytical method of the analytes was validated by FDA Bioanalytical Method Validation Guidance for Industry. The chromatogram of the rat plasma spiked with J2 and SW15 (IS) or NA49 and NA27 was compared with that of the blank rat plasma in order to confirm the specificity of the analytical method. The calibration curves of J2 and NA49 in rat plasma was built for nine concentration levels in the range of 0.025–10 µg/mL. The sensitivity of detection was evaluated by the lower limit of quantification […]
than the baseline noise. The intra-day precision and accuracy were estimated by analyzing five sets of four quality control (QC) samples (0.025, 0.05, 0.5 and 5 µg/mL) in the same day. The inter-day precision and accuracy were evaluated by analyzing a set of four QC samples on five different days. The precision was expressed as a coefficient of variation (CV%) by calculating the ratio of the standard deviation to the mean measured drug con-centration. The accuracy (%) was calculated by dividing a mean measured drug concen-tration by the theoretical drug concentration. The recovery of the analytes from the plasma samples was evaluated at low and high concentrations (0.05 and 5 µg/mL, respectively) by comparing the peak areas of the analytes after extraction to those before extraction. […]
The short-term stability tests were conducted at room temperature for 4 h for J2 and 6 h for […], while the long-term stability tests were performed at −20°C and −70°C for 2 weeks and 4 weeks, respectively. The stability of the analytes following three freeze-thaw cycles, the post-preparative stability and the stock solution stability were also exam-ined. Each blood sample collected from the experimental animals was transferred into an […]

Compound | IC50 [1] [µM] | IC50 [2] [µM] | inhibition at 10 μM (hERG K+ channel) [%] | solubility kinetic [3] | logP [4] | In vitro Metabolic Stability (% of remaining after 30 min) [5] [%] | In vitro Metabolic Stability (% of remaining after 30 min) [6] [%] | AUC(0-t) ([7]; 2 mg/kg) [ng·h/mL] | C0 ([7]; 2 mg/kg) [ng/mL] | Vd ([7]; 2 mg/kg) [L] | clearance ([7]; 2 mg/kg) [mL/min] | half-life ([7]; 2 mg/kg) [min] | AUC(0-t) ([7]; 10 mg/kg) [ng·h/mL] | C0 ([7]; 10 mg/kg) [ng/mL] | Vd ([7]; 10 mg/kg) [L] | clearance ([7]; 10 mg/kg) [mL/min] | half-life ([7]; 10 mg/kg) [min] | Stability of post-preparative sample [8] | Stability of standard stock solution [8] [%] | also measured
Cc1cc(=O)c2c(O)cc(OCC3CS3)cc2o1 (stereo not shown) [J2] | > 100 | 91.8 | 8.7 ± 2.22 | 73.2 µM and 19.5 µg/mL | 2.78 | 2.6 ± 0.45 | 47.8 ± 4.50 | 180 ± 50 | 1640 ± 730 | 0.77 ± 0.27 | 46.5 | 11.4 ± 4.2 | 1480 ± 750 | 6960 ± 2600 | 1.05 ± 0.72 | 31.7 | 27 ± 18 | 102.2–103.4% | 113.2 | Stability after three freeze–thaw cycles, mean ([8]; low concentration (0.05 µg/mL)): 116.6%; Stability at −70°C for 4 weeks, mean ([8]; low concentration (0.05 µg/mL)): 115.2%
COc1ccc(-c2coc3cc(OCC4CS4)ccc3c2=O)c(OC)c1 (stereo not shown) [NA49] | 96.5 | 83.6 | 39 ± 3.9 | 90.2 µM and 33.4 µg/mL | 3.04 | 5.0 ± 1.33 | 24.9 ± 0.77 | 210 ± 70 | 720 ± 400 | 3.35 ± 1.69 | 30.7 | 84 ± 50.4 | 1240 ± 590 | 4960 ± 1120 | 4.13 ± 1.87 | 30 | 93 ± 28.8 | 96.9–102.4% | 98.7 | 
